Biological target: T1, Glucocorticoid receptor (Homo sapiens, UniProt P04150)
T1 sequence (P04150 whole entry): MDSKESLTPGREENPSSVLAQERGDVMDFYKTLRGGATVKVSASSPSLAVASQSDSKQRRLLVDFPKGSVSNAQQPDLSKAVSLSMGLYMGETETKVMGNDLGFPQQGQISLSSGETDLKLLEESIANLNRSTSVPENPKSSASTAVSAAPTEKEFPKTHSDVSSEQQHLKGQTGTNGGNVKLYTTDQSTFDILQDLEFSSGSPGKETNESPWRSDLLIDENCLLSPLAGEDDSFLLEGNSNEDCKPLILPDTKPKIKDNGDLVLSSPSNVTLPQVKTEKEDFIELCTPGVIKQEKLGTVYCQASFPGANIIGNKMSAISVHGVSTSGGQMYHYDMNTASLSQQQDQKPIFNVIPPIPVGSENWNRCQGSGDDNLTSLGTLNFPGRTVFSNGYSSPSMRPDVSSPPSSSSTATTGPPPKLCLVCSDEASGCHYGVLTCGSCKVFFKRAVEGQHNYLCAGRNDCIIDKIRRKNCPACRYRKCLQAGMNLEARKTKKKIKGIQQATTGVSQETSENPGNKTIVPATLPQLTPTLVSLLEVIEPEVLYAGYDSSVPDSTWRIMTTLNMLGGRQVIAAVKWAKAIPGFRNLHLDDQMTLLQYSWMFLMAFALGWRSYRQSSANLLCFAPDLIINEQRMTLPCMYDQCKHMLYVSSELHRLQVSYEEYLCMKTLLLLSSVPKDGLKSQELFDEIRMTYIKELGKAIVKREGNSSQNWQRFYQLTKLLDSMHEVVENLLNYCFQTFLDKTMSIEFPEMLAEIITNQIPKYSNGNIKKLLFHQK
Assay: Antagonist activity at glucocorticoid receptor
Type: functional

IC50: 324 nM
Structure (SMILES): CC/C(C)=C1\Oc2ccc(F)cc2-c2ccc3c(c21)C(C)=CC(C)(C)N3

From ChEMBL document CHEMBL1136068 (Bioorg Med Chem Lett, 2003)
